Assay results reported in patent US20230066011A1, “PYRROLOPYRIMIDINE DERIVATIVE, AND PHARMACEUTICAL COMPOSITION FOR PREVENTING OR TREATING PROTEIN KINASE-RELATED DISEASE COMPRISING SAME AS ACTIVE INGREDIENT” (VORONOI CO., LTD., priority 2019, published 2023).

What was measured:
Format in all cases: binding
CLK1 = molecular target: T1, CLK1 (Homo sapiens, UniProt P49759); experiment: ScanMAX Kinase analysis panel, CLK1; conditions: 1 μM in DMSO; <35% considered inhibitory; read-out: percent control (% control), CLK1
T1 construct: purchased DiscoverX Corp. (ScanMAX Kinase analysis panel, service)
T1 sequence (P49759 whole entry): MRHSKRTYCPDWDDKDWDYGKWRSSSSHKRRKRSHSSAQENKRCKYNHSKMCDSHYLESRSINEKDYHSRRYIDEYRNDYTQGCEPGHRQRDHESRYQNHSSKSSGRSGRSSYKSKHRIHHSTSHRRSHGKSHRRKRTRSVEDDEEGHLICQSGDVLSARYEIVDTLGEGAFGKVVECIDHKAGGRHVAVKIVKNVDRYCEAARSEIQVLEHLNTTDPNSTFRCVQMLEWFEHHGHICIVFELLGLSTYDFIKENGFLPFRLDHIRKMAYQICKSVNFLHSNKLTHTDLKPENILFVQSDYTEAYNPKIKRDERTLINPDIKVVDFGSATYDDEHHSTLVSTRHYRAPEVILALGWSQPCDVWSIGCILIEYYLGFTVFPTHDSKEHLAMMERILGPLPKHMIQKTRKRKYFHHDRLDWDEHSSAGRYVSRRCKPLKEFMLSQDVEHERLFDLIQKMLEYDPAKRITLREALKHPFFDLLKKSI
Method: (§1) Specifically, the enzyme (kinase) selectivity of Example compounds 238, 361, 411, 157, 161, 228, and 158 selected from the Example compounds of the present invention was determined by commissioning DiscoverX Corp., and an experiment was performed using a ScanMAX™ Kinase analysis panel. In this case, a concentration of the drug with which the enzymes were treated was 1 μM in DMSO, and the percent control (% control) was defined in the same manner as in the following Expression 1.
(§2) (Example Compound−Positive Control)/(Negative Control−Positive Control)×100 [Expression 1]
(§3) wherein the positive control represents a compound having a percent control of 0%, and the negative control represents DMSO having a percent control of 100%. For the enzyme selectivity of the present invention, it was considered that the compound has an inhibitory activity on each of the enzymes when the percent control for the corresponding enzyme was <35% (i. e., less than 35%).

GAK = molecular target: T2, GAK (Homo sapiens, UniProt O14976); experiment: ScanMAX Kinase analysis panel, GAK; conditions: 1 μM in DMSO; <35% considered inhibitory; read-out: percent control (% control), GAK
T2 construct: purchased DiscoverX Corp. (ScanMAX Kinase analysis panel, service)
T2 sequence (O14976 1-1311): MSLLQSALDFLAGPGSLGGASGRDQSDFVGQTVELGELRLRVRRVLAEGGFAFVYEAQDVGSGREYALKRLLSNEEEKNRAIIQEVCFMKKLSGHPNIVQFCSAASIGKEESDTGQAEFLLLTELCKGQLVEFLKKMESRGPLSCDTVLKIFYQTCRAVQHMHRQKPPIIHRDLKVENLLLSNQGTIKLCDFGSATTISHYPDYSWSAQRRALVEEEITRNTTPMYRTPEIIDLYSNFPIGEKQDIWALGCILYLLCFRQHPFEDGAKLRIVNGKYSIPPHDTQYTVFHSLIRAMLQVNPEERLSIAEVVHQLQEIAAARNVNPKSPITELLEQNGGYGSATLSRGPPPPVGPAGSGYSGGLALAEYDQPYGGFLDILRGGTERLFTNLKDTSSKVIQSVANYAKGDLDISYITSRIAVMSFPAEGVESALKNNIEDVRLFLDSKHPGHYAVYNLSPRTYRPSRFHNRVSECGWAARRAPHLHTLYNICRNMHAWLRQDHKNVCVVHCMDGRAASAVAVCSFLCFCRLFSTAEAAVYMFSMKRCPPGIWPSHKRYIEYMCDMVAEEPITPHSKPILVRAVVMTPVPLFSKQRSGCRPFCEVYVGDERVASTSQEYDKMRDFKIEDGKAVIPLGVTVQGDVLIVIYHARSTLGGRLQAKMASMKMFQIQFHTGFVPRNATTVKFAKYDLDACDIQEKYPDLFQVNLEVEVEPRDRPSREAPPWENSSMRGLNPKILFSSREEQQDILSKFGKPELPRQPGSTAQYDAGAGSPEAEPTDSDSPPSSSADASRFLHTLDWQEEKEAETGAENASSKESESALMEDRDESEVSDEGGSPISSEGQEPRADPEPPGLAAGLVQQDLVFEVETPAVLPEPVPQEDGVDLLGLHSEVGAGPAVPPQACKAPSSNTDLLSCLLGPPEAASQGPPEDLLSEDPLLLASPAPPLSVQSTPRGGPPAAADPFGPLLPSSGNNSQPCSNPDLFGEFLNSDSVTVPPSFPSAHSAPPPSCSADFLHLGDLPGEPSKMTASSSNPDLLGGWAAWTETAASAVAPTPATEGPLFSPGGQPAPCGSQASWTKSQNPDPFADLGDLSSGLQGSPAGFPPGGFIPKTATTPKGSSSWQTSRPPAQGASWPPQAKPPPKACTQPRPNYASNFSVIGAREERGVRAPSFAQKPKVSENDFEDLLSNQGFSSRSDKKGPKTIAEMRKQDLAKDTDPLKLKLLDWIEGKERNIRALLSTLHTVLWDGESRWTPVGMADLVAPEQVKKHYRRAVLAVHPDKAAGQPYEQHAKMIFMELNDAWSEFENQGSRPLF
Method: as §1, §2, §3

CSNK1D = molecular target: T3, CSNK1D (Homo sapiens, UniProt P48730); experiment: ScanMAX Kinase analysis panel, CSNK1D; conditions: 1 μM in DMSO; <35% considered inhibitory; read-out: percent control (% control), CSNK1D
T3 construct: purchased DiscoverX Corp. (ScanMAX Kinase analysis panel, service)
T3 sequence (P48730 whole entry): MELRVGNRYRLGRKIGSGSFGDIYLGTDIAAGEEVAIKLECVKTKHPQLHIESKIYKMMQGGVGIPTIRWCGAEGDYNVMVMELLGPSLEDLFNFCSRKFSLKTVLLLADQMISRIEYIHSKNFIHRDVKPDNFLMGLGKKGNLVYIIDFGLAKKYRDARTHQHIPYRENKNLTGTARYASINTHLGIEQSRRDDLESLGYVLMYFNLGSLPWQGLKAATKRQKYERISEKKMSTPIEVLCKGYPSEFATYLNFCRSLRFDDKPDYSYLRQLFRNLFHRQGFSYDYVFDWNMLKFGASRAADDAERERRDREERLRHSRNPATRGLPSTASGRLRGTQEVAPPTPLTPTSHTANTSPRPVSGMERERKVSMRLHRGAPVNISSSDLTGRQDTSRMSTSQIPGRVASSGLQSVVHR
Method: as §1, §2, §3

TTK = molecular target: T4, TTK (Homo sapiens, UniProt P33981); experiment: ScanMAX Kinase analysis panel, TTK; parameters: purchased DiscoverX Corp. (commissioned ScanMAX panel service); conditions: 1 μM in DMSO; <35% considered inhibitory; read-out: percent control (% control), TTK
T4 sequence (P33981 1-857): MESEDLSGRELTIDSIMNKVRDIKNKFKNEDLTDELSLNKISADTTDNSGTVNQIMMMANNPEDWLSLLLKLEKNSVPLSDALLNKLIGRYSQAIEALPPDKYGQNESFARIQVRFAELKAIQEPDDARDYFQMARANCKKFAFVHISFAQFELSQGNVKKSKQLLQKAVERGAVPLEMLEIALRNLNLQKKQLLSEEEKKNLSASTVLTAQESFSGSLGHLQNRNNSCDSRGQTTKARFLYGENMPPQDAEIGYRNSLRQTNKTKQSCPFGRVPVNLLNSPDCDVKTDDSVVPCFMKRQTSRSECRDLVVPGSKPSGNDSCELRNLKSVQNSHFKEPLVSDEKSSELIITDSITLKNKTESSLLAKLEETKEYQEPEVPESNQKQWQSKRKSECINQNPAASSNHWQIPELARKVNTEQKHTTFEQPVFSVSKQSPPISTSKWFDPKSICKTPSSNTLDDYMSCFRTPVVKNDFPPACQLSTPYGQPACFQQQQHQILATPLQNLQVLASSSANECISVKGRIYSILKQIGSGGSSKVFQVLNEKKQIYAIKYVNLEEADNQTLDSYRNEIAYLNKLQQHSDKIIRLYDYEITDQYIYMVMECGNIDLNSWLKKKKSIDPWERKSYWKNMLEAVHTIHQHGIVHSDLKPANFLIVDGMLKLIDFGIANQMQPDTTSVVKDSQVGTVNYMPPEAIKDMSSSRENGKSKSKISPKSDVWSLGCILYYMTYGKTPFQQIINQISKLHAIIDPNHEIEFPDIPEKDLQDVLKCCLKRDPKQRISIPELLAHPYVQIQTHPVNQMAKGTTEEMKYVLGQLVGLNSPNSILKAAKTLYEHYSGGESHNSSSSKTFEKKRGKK
Method: as §1, §2, §3

C=CCNc1nc(Nc2ccc(S(=O)(=O)N3CCC(N4CCOCC4)CC3)cc2OC)nc2[nH]cc(C#N)c12 [Example 361, 4-(allylamino)-2-((2-methoxy-4-((4-morpholino-piperidin-1-yl)sulfonyl)phenyl)amino)-7H-pyrrolo[2,3-d]pyrimidine-5-carbonitrile]
remaining binding at 1 µM (CLK1): 2.4% | remaining binding at 1 µM (GAK): 2.7% | remaining binding at 1 µM (CSNK1D): 3.9% | remaining binding at 1 µM (TTK): 2.4%

CNc1nc(Nc2ccc(C(=O)N3CCC(N4CCOCC4)CC3)c3c2OCCO3)nc2[nH]cc(C(F)(F)F)c12 [Example 238, (8-((4-(methylamino)-5-(trifluoromethyl)-7H-pyrrolo[2,3-d]pyrimidin-2-yl)amino)-2,3-dihydrobenzo[b][1,4]dioxin-5-yl)(4-morpholinopiperidin-1-yl)methanone]
remaining binding at 1 µM (CLK1): 16% | remaining binding at 1 µM (GAK): 3.1% | remaining binding at 1 µM (CSNK1D): 16% | remaining binding at 1 µM (TTK): 2.9%

CNc1nc(Nc2ccc(S(=O)(=O)N3CCC(N4CCOCC4)CC3)cc2OC)nc2[nH]cc(C(F)(F)F)c12 [Example 157, N^2-(2-methoxy-4-((4-morpholinopiperidin-1-yl)sulfonyl)phenyl)-N^4-methyl-5-(trifluoromethyl)-7H-pyrrolo[2,3-d]pyrimidine-2,4-diamine 2,2,2-trifluoroacetate]
remaining binding at 1 µM (CLK1): 6.7% | remaining binding at 1 µM (GAK): 4.2% | remaining binding at 1 µM (CSNK1D): 2.9% | remaining binding at 1 µM (TTK): 4%

CCNc1nc(Nc2ccc(S(=O)(=O)N3CCC(N4CCOCC4)CC3)cc2OC)nc2[nH]cc(C(F)(F)F)c12 [Example 158, N^4-ethyl-N^2-(2-methoxy-4-((4-morpholinopiperidin-1-yl)sulfonyl)phenyl)-5-(trifluoromethyl)-7H-pyrrolo[2,3-d]pyrimidine-2,4-diamine 2,2,2-trifluoroacetate]
remaining binding at 1 µM (CLK1): 1% | remaining binding at 1 µM (GAK): 21% | remaining binding at 1 µM (CSNK1D): 5.3% | remaining binding at 1 µM (TTK): 2.6%

CNc1nc(Nc2ccc(P3(=O)CCN(C4CC4)CC3)cc2OC)nc2[nH]cc(C(F)(F)F)c12 [Example 411, 1-cyclopropyl-4-(3-methoxy-4-((4-(methylamino)-5-(trifluoromethyl)-7H-pyrrolo[2,3-d]pyrimidin-2-yl)amino)phenyl)-1,4-azaphosphinane-4-oxide]
remaining binding at 1 µM (CLK1): 7.2% | remaining binding at 1 µM (GAK): 2.4% | remaining binding at 1 µM (CSNK1D): 14% | remaining binding at 1 µM (TTK): 2.5%

CCCNc1nc(Nc2ccc(S(=O)(=O)N3CCC(N4CCOCC4)CC3)cc2OC)nc2[nH]cc(C(F)(F)F)c12 [Example 161, N^2-(2-methoxy-4-((4-morpholinopiperidin-1-yl)sulfonyl)phenyl)-N^4-propyl-5-(trifluoromethyl)-7H-pyrrolo[2,3-d]pyrimidine-2,4-diamine]
remaining binding at 1 µM (CLK1): 5.5% | remaining binding at 1 µM (GAK): 4% | remaining binding at 1 µM (CSNK1D): 15% | remaining binding at 1 µM (TTK): 4.2%

O=C(c1ccc(Nc2nc(C3CC3)c3c(C(F)(F)F)c[nH]c3n2)c2c1OCCO2)N1CCC(N2CCOCC2)CC1 [Example 228, (8-((4-cyclopropyl-5-(trifluoromethyl)-7H-pyrrolo[2,3-d]pyrimidin-2-yl)amino)-2,3-dihydrobenzo[b][1,4]dioxin-5-yl)(4-morpholinopiperidin-1-yl)methanone]
remaining binding at 1 µM (CLK1): 6.1% | remaining binding at 1 µM (GAK): 3% | remaining binding at 1 µM (CSNK1D): 45% | remaining binding at 1 µM (TTK): 2.9%
